Data on twelve molecules can be found in patent publication US10822334B2, “ErbB receptor inhibitors” (Dizal (Jiangsu) Pharmaceutical Co., Ltd., priority 2018, dated 2020).

A short description of data set [1]: Blood brain barrier penetration assay in rats (short oral absorption model). It is filed as in vivo. The following applies: for Kp uu: male, Han Wistar, rat, po. The procedure:
In vitro blood, plasma and brain binding assay was carried out with equilibrium dialysis device. Diluted blood (1:1with DPBS pH7.4), EDTA-anticoagulated plasma, and brain homogenate (1:3 with DPBS pH7.4) were spiked with 5 μM test compound (in triplicate) and dialyzed against equal volume of 150 μL 100 mM PBS buffer (pH7.4) at 37° C. for appropriate equilibration time in a slowly rotated plate. At the end of incubation, a 50 μL aliquot from the receiver side and a 5 μL from the donor chamber were taken. The 5 μL sample was further diluted with 45 μL of blank blood, plasma or brain homogenate. Paired samples were matrix-matched with either buffer or blank matrix, and mixed for 2 min, and then precipitated with 150 μL cold acetonitrile with 100 ng/mL tolbutamide as internal standard. After centrifuging at 4000 rpm for 20 min, supernatant was diluted with 0.1% formic acid aqueous solution and analyzed for LC/MS/MS (API 4000, Applied Biosystems, Foster City). Unbound fraction (fu) of test compound were calculated by the ratio of the buffer side response to the brain homogenate/plasma/blood side response, and unbound fraction (fu,bl, fu,pl and fu,br) of test compound in non-diluted blood and tissue were calculated from measured fu in homogenate and diluted blood with the following equation: fu,bl (fu,br)=(1/D)/[(1/fu−1)+1/D)]. D is dilution factor. (D equates 1 for plasma, 2 for blood, and 4 for brain)
A Short oral absorption (SOA) model is an in-vivo screening model to identify brain penetration of a compound. Six male Han Wistar rats purchased from Beijing Vital River were orally dosed with the compound. At predefined time point post-dose, cerebral spinal fluid (CSF) was collected from cisterna magna, and blood samples (>60 μL/time point/each site) were collected via cardiac puncture, into separate EDTA anti-coagulated tubes, and then immediately diluted with 3-fold volume of water for blood samples, or centrifuged at 4000 g for 10 min to obtain plasma. Brain tissue was harvested and homogenized in 3× volume of 100 mM phosphate buffered saline (pH7.4). All samples were stored at ˜−70° C. prior to LC/MS/MS analysis.
Standards were prepared by spiking blank plasma, blood, brain homogenate and artificial CSF. Homogenized brain tissue along with blood/plasma samples were precipitated by adding 3-fold volume of cold acetonitrile containing internal standard, and 10 μL of CSF samples were precipitated with 100 μL of cold acetonitrile containing internal standard. After 2 min vortex and 5 min centrifugation at 14,000 rpm, supernatant was analyzed by LC/MS/MS (API 4000, Applied Biosystems, Foster City). Two sets of standard curves were run at the beginning and end of each batch from blood sample analysis. For brain and CSF samples, one standard curve was analyzed along with test samples.
Total brain levels, expressed as brain/blood ratio (Kp,brain) were measured by AUC(brain)/AUC(blood or plasma) in rodents after oral administration. Similarly, CSF levels represented by a ratio of CSF/blood exposure (Kp,CSF) were determined by AUC(CSF)/AUC(blood or plasma). Free fraction of test compound in biological matrix was determined by in vitro blood and brain binding assay.
Kp,uubrain and Kp,uu CSF was calculated by the following equation: Kp,uu brain=AUC(brain)/AUC(blood or plasma)×(fubrain/fublood/plasma) and Kp,uu CSF=AUC(CSF)/AUC(blood or plasma)×(1/fublood/plasma).

Data set [2] has as its system BT474 cells. As to the kind of experiment: BT474 anti-proliferation assay (MTS). It is filed as cell-based. Conditions: Homo sapiens. As for the experimental part: A compound's activity of selective inhibition for HER2 wild type amplification can be evaluated with BT474 cell line (ATCC® HTB-20™). The cell line expressed phosphorylated HER2 protein and its proliferation depended on the amplified gene, which could be used for in vitro PD and anti-proliferation assays.
The anti-proliferation activity of compounds were determined as following procedure: The BT474 cells were sorted in 384 well plates with the DMEM medium containing 10% FBS and […] overnight and then dosed with tested compounds at a series of concentrations (30 μM, 10 μM, 3 μM, 0.3 μM, 0.1 μM, 0.03 μM, 0.01 μM, 0.001 μM) on next day. Meanwhile, another cells plate was prepared for measuring GO value on next day. The dosed plates were incubate for 72h at 37° C. with 5% CO2 and the number of viable cells in each well of GO or dosed plates were measured by MTS (CellTiter 96® AQueous One Solution Cell Proliferation Assay, Promega) endpoint. This assay is a colorimetric method for determining the number viable cells in the proliferation assay. Detection reagents (5 μl) was dispensed into per well, and the plates were incubated for 2 hrs at room temperature. Then, absorbance at 490 nm and 650 nm (reference wavelength) in each well was measured using the safile II. (Tecan). The percentage of proliferation was got from the formula: % Proliferation=100×(G3 value of sample well-Go value)/(G3 value of DMSO control-Go value). The GI50 values were further calculated as the compounds concentration required for 50% Proliferation in best-fit curves using Genedata Screener® software.

Data set [3] addresses WT HER2 (Homo sapiens (Human), UniProt P04626). The data set is described as follows: HER2 (Y1248) phosphorylation in BT474 cells (MSD). It is filed as cell-based. The following applies: p-HER2 (Y1248)/total HER2, 4 h, read-out: HER2 WT Amplification BT474 IC50. The procedure:
The plates were incubated for 4 h at 37° C. with 5% CO2 and then the HER2 (Y1248) phosphorylation level of cells in each well were measured with MSD Kit (Phospho-ErbB2 ([…]) Assay Whole Cell Lysate Kit: Cat # […]-3). The assay is a electrochemiluminescent method (MESO SCALE DISCOVERY) for determining both phosphorylated and total HER2 of cells with an MSD SECTOR® Imager and then the ratio of p-HER2/total HER2 can be generated by the machine.

Data set [4] addresses WT EGFR (Homo sapiens (Human), UniProt P00533). The data set is described as follows: EGFR (Y1068) phosphorylation in NCI-H838 cells (MSD). Conditions: p-EGFR (Y1068)/total EGFR, 4 h, hEGF stimulation. It is filed as cell-based.
[5] abbreviates: CSF, male Han Wistar rats, oral, AUC(CSF)/AUC(blood or plasma) x 1/fu, read-out: Kp,uu CSF.
Setting [6] is: brain, male Han Wistar rats, oral, AUC(brain)/AUC(blood or plasma) x fu ratio, read-out: Kp,uu brain.
Setting [7] is: BT-474, BT474 cells, 72 h, MTS, read-out: HER2 WT Amplification BT474 GI50.

SMILES strings stand for the structures. Where two headings read alike, the source gives them in different places.

Chain of WT EGFR (P00533 25-1210): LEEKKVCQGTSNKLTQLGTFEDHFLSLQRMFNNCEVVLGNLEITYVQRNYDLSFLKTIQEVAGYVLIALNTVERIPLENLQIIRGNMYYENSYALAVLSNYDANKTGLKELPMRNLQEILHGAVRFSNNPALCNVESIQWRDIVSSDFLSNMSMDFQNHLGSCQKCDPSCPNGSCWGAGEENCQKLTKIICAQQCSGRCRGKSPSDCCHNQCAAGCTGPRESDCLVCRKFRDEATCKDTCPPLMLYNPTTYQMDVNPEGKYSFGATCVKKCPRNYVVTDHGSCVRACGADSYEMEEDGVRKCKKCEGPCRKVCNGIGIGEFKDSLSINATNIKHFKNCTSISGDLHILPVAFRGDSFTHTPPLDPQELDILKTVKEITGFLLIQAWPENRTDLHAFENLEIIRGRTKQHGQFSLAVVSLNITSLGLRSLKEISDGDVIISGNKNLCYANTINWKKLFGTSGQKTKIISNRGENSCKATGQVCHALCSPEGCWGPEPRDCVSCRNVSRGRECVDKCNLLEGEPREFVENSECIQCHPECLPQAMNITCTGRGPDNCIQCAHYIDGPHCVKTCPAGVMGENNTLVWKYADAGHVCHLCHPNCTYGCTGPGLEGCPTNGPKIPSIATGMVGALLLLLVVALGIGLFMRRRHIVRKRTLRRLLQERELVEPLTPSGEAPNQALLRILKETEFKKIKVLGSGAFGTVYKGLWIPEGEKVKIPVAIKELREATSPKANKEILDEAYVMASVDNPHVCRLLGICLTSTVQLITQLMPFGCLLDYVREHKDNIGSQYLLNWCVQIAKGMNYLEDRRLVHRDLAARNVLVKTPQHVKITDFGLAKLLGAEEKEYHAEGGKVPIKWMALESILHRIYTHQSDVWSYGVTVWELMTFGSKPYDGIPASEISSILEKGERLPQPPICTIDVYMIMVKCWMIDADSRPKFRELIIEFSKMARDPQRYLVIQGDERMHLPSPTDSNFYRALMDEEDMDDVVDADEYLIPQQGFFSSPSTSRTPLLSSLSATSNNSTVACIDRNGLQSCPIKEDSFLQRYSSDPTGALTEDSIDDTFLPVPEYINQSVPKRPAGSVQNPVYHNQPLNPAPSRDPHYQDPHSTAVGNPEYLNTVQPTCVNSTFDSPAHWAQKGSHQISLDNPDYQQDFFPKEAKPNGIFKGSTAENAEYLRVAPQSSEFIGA
Chain of WT HER2 (P04626 23-1255): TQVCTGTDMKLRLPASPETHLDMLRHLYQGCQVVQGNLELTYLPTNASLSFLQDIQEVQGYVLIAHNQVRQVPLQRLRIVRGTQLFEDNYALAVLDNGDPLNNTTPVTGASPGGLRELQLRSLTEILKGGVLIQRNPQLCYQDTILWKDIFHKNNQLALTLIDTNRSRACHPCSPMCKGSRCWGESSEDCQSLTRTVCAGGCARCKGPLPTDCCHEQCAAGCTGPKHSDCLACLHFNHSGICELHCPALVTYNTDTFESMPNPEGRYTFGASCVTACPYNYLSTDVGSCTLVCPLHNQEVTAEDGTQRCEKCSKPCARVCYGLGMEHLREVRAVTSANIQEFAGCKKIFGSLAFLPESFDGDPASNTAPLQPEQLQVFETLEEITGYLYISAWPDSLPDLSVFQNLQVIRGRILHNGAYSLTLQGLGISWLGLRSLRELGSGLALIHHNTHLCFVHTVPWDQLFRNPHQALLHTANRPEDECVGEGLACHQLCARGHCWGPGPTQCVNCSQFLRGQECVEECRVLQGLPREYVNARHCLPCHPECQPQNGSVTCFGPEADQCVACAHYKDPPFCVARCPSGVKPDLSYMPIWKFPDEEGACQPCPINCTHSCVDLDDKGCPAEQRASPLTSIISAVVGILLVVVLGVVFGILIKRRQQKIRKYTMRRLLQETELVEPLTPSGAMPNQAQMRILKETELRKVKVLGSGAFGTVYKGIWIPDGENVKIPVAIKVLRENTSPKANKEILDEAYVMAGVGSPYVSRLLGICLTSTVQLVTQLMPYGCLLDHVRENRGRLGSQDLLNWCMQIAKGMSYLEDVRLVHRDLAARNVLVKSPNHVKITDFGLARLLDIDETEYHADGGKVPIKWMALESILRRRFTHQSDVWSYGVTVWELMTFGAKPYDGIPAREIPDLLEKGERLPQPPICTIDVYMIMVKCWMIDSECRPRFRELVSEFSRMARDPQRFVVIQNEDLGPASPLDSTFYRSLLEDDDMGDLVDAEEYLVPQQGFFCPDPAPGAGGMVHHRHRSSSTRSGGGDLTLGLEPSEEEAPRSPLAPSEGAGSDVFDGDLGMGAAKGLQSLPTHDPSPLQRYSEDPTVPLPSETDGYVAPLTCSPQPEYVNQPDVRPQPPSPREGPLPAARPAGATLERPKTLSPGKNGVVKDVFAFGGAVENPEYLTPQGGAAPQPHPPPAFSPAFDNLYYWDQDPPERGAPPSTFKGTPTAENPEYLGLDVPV

`Cc1cc(Nc2ncnc3cccc(OC4CCN(C)CC4(F)F)c23)ccc1Oc1ccn2ncnc2c1` (single isomer, unassigned) [Compound 1, N-(4-([1,2,4]triazolo[1,5-a]pyridin-7-yloxy)-3-methylphenyl)-5-((3,3-difluoro-1-methylpiperidin-4-yl)oxy)quinazolin-4-amine]: the Kp uu is 1.44 in data set [1] (setting [5]) and 0.23 in data set [1] (setting [6]). In data set [2] (setting [7]), the GI50 (as a rule, the concentration that inhibits growth by half) came to 24.2 ± 24 nM. For the same molecule, the IC50 (commonly the concentration that gives 50% inhibition) was 6.86 nM in data set [3] and above 3 µM in data set [4].

In the case of `Cc1cc(Nc2ncnc3cc(F)cc(OC4CCN(C)CC4(F)F)c23)ccc1Oc1ccn2ncnc2c1` (single isomer, unassigned) [Compound 17], the figures for the Kp uu in data set [1] (setting [5]) and in data set [1] (setting [6]) were 1.02 and 0.07, respectively. Besides, the GI50 in data set [2] (setting [7]) worked out at 126 ± 9.01 nM. In addition, the IC50 in data set [3] was 44 nM; in data set [4] it was above 3 µM.

As for `COc1cc(O[C@H]2CCNCC2(F)F)c2c(Nc3ccc(Oc4ccn5ncnc5c4)c(C)c3)ncnc2c1` [Compound 16, (S)-N-(4-([1,2,4]triazolo[1,5-a]pyridin-7-yloxy)-3-methylphenyl)-5-((3,3-difluoropiperidin-4-yl)oxy)-7-methoxyquinazolin-4-amine], the values for the Kp uu in data set [1] (setting [5]) and in data set [1] (setting [6]) were 0.11 and 0.03, respectively. Moreover, in data set [2] (setting [7]), the GI50 came out at 14.3 ± 13.6 nM. In addition, the IC50 in data set [3] was determined as 10.6 ± 2.4 nM; in data set [4], 3.06 ± 0.0803 µM.

As for `[2H]C([2H])([2H])N1CCC(Oc2cccc3ncnc(Nc4ccc(Oc5ccn6ncnc6c5)c(C)c4)c23)C(F)(F)C1` (single isomer, unassigned) [Compound 24, N-(4-([1,2,4]triazolo[1,5-a]pyridin-7-yloxy)-3-methylphenyl)-5-((3,3-difluoro-1-(methyl-d3)piperidin-4-yl)oxy)quinazolin-4-amine], the figures for the Kp uu in data set [1] (setting [5]) and in data set [1] (setting [6]) were 1.44 and 0.23, respectively. The GI50 in data set [2] (setting [7]) came out at 50.8 nM. Further, the IC50 was 9.38 nM in data set [3] and above 10 µM in data set [4].

As to `[2H]C1(Oc2cc(OC)cc3ncnc(Nc4ccc(Oc5ccn6ncnc6c5)c(C)c4)c23)CCN(C)CC1(F)F` (racemic) [Compound 27, (±)-N-(4-([1,2,4]triazolo[1,5-a]pyridin-7-yloxy)-3-methylphenyl)-5-((3,3-difluoro-1-methylpiperidin-4-yl-4-d)oxy)-7-methoxyquinazolin-4-amine], the Kp uu stood at 0.52 in data set [1] (setting [5]) and 0.1 in data set [1] (setting [6]). Moreover, the GI50 in data set [2] (setting [7]) is 22.1 nM. In addition, the IC50 in data set [3] was found to be 10.3 nM; in data set [4], 5.13 µM.

Regarding `CCOc1cc2ncc(C#N)c(Nc3ccc(OCc4ccccn4)c(Cl)c3)c2cc1NC(=O)/C=C/CN(C)C` [Neratinib, reference compound], the “Kp,uu CSF” value in data set [1] (male Han Wistar rats, oral, AUC(CSF)/AUC(blood or plasma) x 1/fu) is reported as “AUC(CSF) below”. Further, in data set [1] (male Han Wistar rats, oral, AUC(brain)/AUC(blood or plasma) x fu ratio), the “Kp,uu brain” value is on record as “AUC(brain) below”. Also, the GI50 in data set [2] (BT-474, 72 h, read-out: HER2 WT Amplification BT474 GI50 (nM)) came to 0.71 ± 0.08 nM.

Consider `Cc1cc(Nc2ncnc3cccc(O[C@@H]4C[C@H]5CC[C@@H](C4)N5C)c23)ccc1Oc1ccn2ncnc2c1` [Compound 20, N-(4-([1,2,4]triazolo[1,5-a]pyridin-7-yloxy)-3-methylphenyl)-5-(((1R,3s,5S)-8-methyl-8-azabicyclo[3.2.1]octan-3-yl)oxy)quinazolin-4-amine], for which the Kp uu in data set [1] (in vivo, Kp,uu CSF) turned out to be 0.07; in data set [1] (in vivo, Kp,uu brain), 0.08. In data set [2] (setting [7]), the GI50 was 41 ± 1.55 nM. In addition, the IC50 in data set [3] was 12.6 nM; in data set [4] it was above 10 µM.

In the case of `Cc1cc(Nc2ncnc3cccc(OC4CC(C)N(C)CC4(F)F)c23)ccc1Oc1ccn2ncnc2c1` (single isomer, unassigned) [Compound 19], the Kp uu amounted to 0.4 in data set [1] (setting [5]) and 0.1 in data set [1] (setting [6]). Also, the GI50 in data set [2] (setting [7]) was 11.5 nM. The IC50 is 9.56 ± 3.13 nM in data set [3] and above 10 µM in data set [4].

Consider `COc1cc(OC2CCN(C)CC2(F)F)c2c(Nc3cc(C)c(Oc4ccn5ncnc5c4)cc3F)ncnc2c1` (single isomer, unassigned) [Compound 14], for which the Kp uu in data set [1] (setting [5]) amounted to 0.24; in data set [1] (setting [6]), 0.04. For the same molecule, in data set [2] (setting [7]), the GI50 was found to be 26.8 ± 11.5 nM. Further, the IC50 in data set [3] worked out at 19.7 nM; in data set [4], 1.39 µM.

With `COc1cc(O[C@H]2CCN(C)CC2(F)F)c2c(Nc3ccc(Oc4ccn5ncnc5c4)c(C)c3)ncnc2c1` (single isomer, unassigned) [Compound 6], the Kp uu in data set [1] (setting [5]) worked out at 0.56; in data set [1] (setting [6]) it was 0.18. Besides, in data set [2] (setting [7]), the GI50 was determined as 18.7 ± 9.16 nM. Besides, the IC50 was 19.6 ± 8.76 nM in data set [3] and 3.29 ± 1.35 µM in data set [4].

Take `[2H]C([2H])([2H])N1CCC([2H])(Oc2cc(OC)cc3ncnc(Nc4ccc(Oc5ccn6ncnc6c5)c(C)c4)c23)C(F)(F)C1` (single isomer, unassigned) [Compound 28]: the Kp uu in data set [1] (setting [5]) worked out at 0.52; in data set [1] (setting [6]) it was 0.11. Also, the GI50 in data set [2] (setting [7]) was 35.8 nM. In addition, the IC50 in data set [3] was found to be 22.4 nM; in data set [4], 5.22 µM.

On to `[2H]C([2H])([2H])N1CC[C@H](Oc2cccc3ncnc(Nc4ccc(Oc5ccn6ncnc6c5)c(C)c4)c23)C[C@@H]1C(F)(F)F` (racemic) [Compound 25, (±)-N-(4-([1,2,4]triazolo[1,5-a]pyridin-7-yloxy)-3-methylphenyl)-5-(((2R,4S)-1-(methyl-d3)-2-(trifluoromethyl)piperidin-4-yl)oxy)quinazolin-4-amine], for which the Kp uu was determined as 1.92 in data set [1] (setting [5]) and 0.11 in data set [1] (setting [6]). Also, the GI50 in data set [2] (setting [7]) was 47.2 nM. Also, the IC50 in data set [3] was 16.8 nM; in data set [4] it was above 10 µM.
